Test results from article PMC9705435, “Thiocarbazate building blocks enable the construction of azapeptides for rapid development of therapeutic candidates” (Nature Communications, 2022).
Entries after “also recorded” stand apart in the source; their conditions may differ. Numbered stars: 1 amine (or outer) side, 2 acyl side, 3 side chain; on linkers, the order of the positions; unused ones are H or OH. Square brackets hold non-standard residues; d marks the D form. Peptide text beside a SMILES is read from it. azaPhe = O=C(N(Cc1ccccc1)N[*:1])[*:2]; azaPro = O=C(N1CCCN1[*:1])[*:2]

Columns and labels:
[1] = tested on: STZ-induced type 1 diabetic (T1D) mice; assay: Low-dose streptozotocin (STZ)-induced type 1 diabetes in mice; settings: 500 µg/mouse/day i.p.; for severity of insulitis (insulitis scores): 2 weeks of treatment, H&E; for development of hyperglycemia: vs diabetic (saline) group
Protocol: Data are presented as means ± SD. […] Mice were simultaneously injected i.p. with saline, FSSE (500 µg/mouse/day), or azaF^1SSazaE^4 (500 µg/mouse/day). Blood glucose was measured on day 0, 7 and 14. Number of mice per group: saline n = 7; FSSE n = 8; azaF^1SSazaE^4 n = 8. Data are presented as mean values ± SEM. […] Serum samples from mice challenged with STZ were collected at day 14 and analyzed by ELISA. n = 7 mice per group. Data are presented as mean values ± SEM. […] Number of islets per group: saline n = 3, 13 islets; FSSE n = 2, 11 islets; azaF^1SSazaE^4 n = 3, 23 islets. P-value was calculated using two-sided Fisher’s exact test to compare islets without (score 0) and with (score 1-4) insulitis. Pancreas tissue was histologically analyzed from 2–3 animals per group. Representative hematoxylin and eosin (H&E) stained images of islets from each group are shown (right panel). Scale bars, 50 μm.
given free access to water and standard rodent chow and were acclimated to their environment for at least 1 week before experimentation.
4.5 STZ-induced type 1 diabetes in mice
Induction of Diabetes T1D was induced by administration of streptozotocin (STZ) (Sigma-Aldrich) (50 mg/kg dissolved in sodium citrate buffer, pH 4.5) to 6-8 weeks old C57Bl/6J mice intraperitoneally (i.p.) once each day for 5 consecutive days.
Mice were given water supplemented with 10% sucrose (Sigma-Aldrich) for six days to prevent sudden hypoglycemia during streptozotocin administration.
of FSSE, azaF1SSazaE4 or saline. Blood glucose with either FreeStyle Lite blood glucose meter (Abbot Diabetes Care, Inc.) or Bayer Contour blood glucose meter (Bayer HealthCare, LLC.) and body weight were measured once weekly. At the end of each study, mice were euthanized by CO2 asphyxiation. Blood and pancreas were collected for further analysis.
Pancreas were fixed in 10% formalin and processed for paraffin embedding (AML Laboratory and Genecopoeia). 7-μm-thick sections were stained with hematoxylin/eosin (Genecopoeia) and the degree of insulitis was eva luated microscopically. Islets were analyzed in multiple sections at 20×.

in vitro = settings: male, C57BL/6J, mouse, blood
murine monocytes = assay: HMGB1-stimulated TNF release in murine splenic monocytes (ELISA); type: cell-based, mouse; settings: 0.1, 1 or 10 µM peptide, HMGB1 1 µg/ml, 24 h
Excerpt: 4.2 HMGB1 protein preparation
For TNF ELISA experiments, […]

[2] = tested on: mouse model of acetaminophen-induced liver toxicity; assay: Acetaminophen (APAP)-induced liver toxicity in mice; type: in vivo; settings: vs scrambled peptide; for liver function enzymes and plasma cytokines / pro-inflammatory markers: APAP 200 mg/kg IP, 50 µg/mouse at 2 and 7 hours post-APAP, 24 h; for protection / survival in APAP toxicity model: APAP 400 mg/kg, 50 µg/mouse IP at 2 h post-APAP, then once a day for 5 days
rats = assay: Acute blood pressure monitoring (mean arterial pressure) in anesthetized rats; type: in vivo, rat; settings: Icatibant 10 µg/kg IV-bolus 15 min before azaF^8-BK
Protocol: Each grey data point represents one animal. Mean values (with SEM where indicated) for animals given experimental agent were compared with vehicle.
Next, in vivo bioactivity of aza-BK analogues was evaluated in an acute blood pressure monitoring study in rats[61] based on the known blood pressure lowering effect of BK. Briefly, rats were anesthetized and changes in mean arterial blood pressure (MAP) were recorded during intravenous (IV) injection of test agents (6.4 µg/kg) (Fig. 4b).
Statistical analysis. […] Data are presented as means ± SEM unless otherwise stated. Differences between treatment groups were determined by 2-tailed Unpaired t-test; p value less than 0.05 was considered statistically significant. […] P values less than 0.05 were considered statistically significant.
5.2 Surgical procedure and physiological blood pressure measurement
Adult male Sprague Dawley rats (n = 22, weight: 300 – 350 gm; age: 8 – 10 weeks) from Charles River Labs were used under the approval of Institutional Animal Care and Use Committee at The Feinstein Institutes for Medical Research
Rats were anesthetized using isoflurane at 1-3 %. Body temperature was maintained at 37°C using a heating pad. […] All physiological signals were registered using PowerLab, BioAmp and BridgeAmp (ADInstruments, CO, USA), which were recorded on a computer using LabChart v8 software (ADInstruments, CO, USA). […]

3T3 cells = molecular target: T1, 3T3 cells (Mus musculus, UniProt P32299); assay: PGE2 induction in 3T3 fibroblasts (ELISA); type: cell-based; settings: 7 min, serum-free medium
T1 sequence (P32299 1-392): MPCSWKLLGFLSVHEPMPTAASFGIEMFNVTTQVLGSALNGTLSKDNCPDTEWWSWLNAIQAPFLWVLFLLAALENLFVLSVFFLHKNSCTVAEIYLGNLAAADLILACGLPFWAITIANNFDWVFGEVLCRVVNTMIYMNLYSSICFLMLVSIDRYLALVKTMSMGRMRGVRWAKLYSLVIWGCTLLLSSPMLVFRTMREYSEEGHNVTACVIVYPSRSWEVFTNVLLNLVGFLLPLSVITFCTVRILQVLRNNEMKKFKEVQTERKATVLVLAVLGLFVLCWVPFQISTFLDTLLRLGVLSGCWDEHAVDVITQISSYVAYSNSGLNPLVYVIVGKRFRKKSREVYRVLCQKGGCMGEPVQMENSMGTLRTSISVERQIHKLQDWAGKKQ
Protocol: Subconfluent monolayers of 3T3 cells were incubated with test compounds for 7 min in serum-free medium and supernatants were collected and analyzed for PGE2 by ELISA.
5.1 In vitro PGE2 induction
3T3 Swiss Albino cell line (ATCC CCL-92) was purchased from American Type Culture Collection (Manassas, VA).
Following trypsinization, cells were washed and resuspended in DMEM-Complete at a cell density of 0.03 x 10^6 cells per ml. Cells were seeded into 96 -well flat-bottomed culture plates (6 x 10^3 cells per well in 200 µl). After one day of culture, 3T3 cell monolayers were washed two times in pre-warmed DMEM supplemented with 20 mM HEPES (DMEM-HEPES) and DMEM-HEPES
supernatants were collected and immediately frozen at -20°C for future PGE2 analyses. PGE2 levels in supernatants were determined using PGE2 ELISA kit (Enzo Life Sciences, Farmingdale, NY) following manufacturer’s instructions. Samples were assayed in quadruplicate. PGE2 ELISA data were analyzed using GraphPad Prism Version 9.3.1.

[3] = molecular target: T2, Human B2 (h) receptor (B2R) (Homo sapiens, UniProt P30411); assay: Human B2 (h) (agonist radioligand) receptor binding assay, [3H]bradykinin displacement
T2 construct: host or cells: CHO cells
T2 sequence (P30411 1-391): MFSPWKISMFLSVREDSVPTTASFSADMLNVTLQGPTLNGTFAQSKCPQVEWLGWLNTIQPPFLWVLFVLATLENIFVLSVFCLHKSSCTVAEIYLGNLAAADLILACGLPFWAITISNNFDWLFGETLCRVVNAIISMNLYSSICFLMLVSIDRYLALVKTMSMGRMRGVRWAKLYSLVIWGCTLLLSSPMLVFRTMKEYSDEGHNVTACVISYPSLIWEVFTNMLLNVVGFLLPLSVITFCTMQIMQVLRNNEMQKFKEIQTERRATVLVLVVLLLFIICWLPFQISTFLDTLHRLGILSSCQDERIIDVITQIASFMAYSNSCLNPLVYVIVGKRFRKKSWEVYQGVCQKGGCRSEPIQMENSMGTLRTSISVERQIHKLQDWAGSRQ
Excerpt: The data was collected by CRO Eurofins Cerep (France) and the result is attached as an additional data file. B2R radioligand agonist binding displacement assay for determination of IC-50.
Test compounds (FI-U / [azaP2, azaF8-BK (70), FI-2V / azaF8-BK (68), and FI-8G / azaP2-BK (63)) were supplied to Eurofins in a blinded manner and run at five concentrations to determine the IC-50’s. Standard company control test compounds were used for assay validation. Experimental assays achieved inhibition of more than 50% and were considered to represent significant effects of the test compounds.
(B2(h)) was used as the agonist for B2R receptor binding. The results are expressed as a percent of control specific binding (measured specific binding /control specific binding)*100, and as a percent inhibition of control specific binding (100 minus (measured specific binding/ control specific binding)*100) obtained in the presence of the test compounds. The IC50 values (concentration causing a half-maximal inhibition of control specific binding) and Hill coefficients (nH) were determined by non-linear regression analysis of the competition curves generated with mean replicate values using Hill equation curve fitting Y=D+[ A-D / 1+(C/C50) nH] where Y = specific binding, A = left asymptote of the curve, D = right asymptote of the curve, C = compound concentration, C50 = IC50, and nH = slope factor. This analysis was performed using software developed at Cerep (Hill software) and validated by comparison with data generated by the commercial software SigmaPlot® 4.0 for […]
The inhibition constants (Ki) were calculated using the Cheng Prusoff equation. Ki=IC50/(1+L/Kd) where L = concentration of radioligand in the assay, and Kd = affinity of the radioligand for the receptor. A scatchard plot is used to determine the Kd. […]
9.1. Experimental Conditions
9.1.1. In Vitro Pharmacology: Binding Assays
Assay Source Ligand Conc. Kd Non Specific Incubation Detection Bibl.
(agonist recombinant (1 µM) RT counting
9.2. Analysis and expression of results
9.2.1. In Vitro Pharmacology: Binding Assays
The results are expressed as a percent of control specific binding measured specific binding *100 […]
and as a percent inhibition of control specific binding
100-( measured specific binding *100) […]
obtained in the presence of the test compounds.
The IC50 values (concentration causing a half-maximal inhibition of control specific binding) and Hill coefficients (nH) were determined by non-linear regression analysis of the competition curves generated with mean replicate values using Hill equation […]
where Y = specific binding, A = left asymptote of the curve, D = right asymptote of the curve, C = compound concentration, C50 = IC50, and nH = slope factor. This analysis was performed using software developed at Cerep (Hill software) and validated by […]
The inhibition constants (Ki ) were calculated using the Cheng Prusoff equation where L = concentration of radioligand in the assay, and KD = affinity of the radioligand for the receptor. A scatchard plot is used to […]

Row | Compound | severity of insulitis (insulitis scores) [1] | development of hyperglycemia [1] | HMGB1-induced TNF production (murine monocytes) | half-life (in vitro) [min] | EC50 (3T3 cells) [nM] | IC50 [3] [nM] | Ki [3] [nM] | % Inhibition of Control Specific Binding, 1st ([3]; 1.0E-06 M) [%] | % Inhibition of Control Specific Binding, 2nd ([3]; 1.0E-06 M) [%] | % Inhibition of Control Specific Binding, Mean ([3]; 1.0E-06 M) [%] | % Inhibition of Control Specific Binding, 1st ([3]; 1.0E-07 M) [%] | % Inhibition of Control Specific Binding, 2nd ([3]; 1.0E-07 M) [%] | % Inhibition of Control Specific Binding, Mean ([3]; 1.0E-07 M) [%] | % Inhibition of Control Specific Binding, 1st ([3]; 1.0E-08 M) [%] | % Inhibition of Control Specific Binding, 2nd ([3]; 1.0E-08 M) [%] | % Inhibition of Control Specific Binding, Mean ([3]; 1.0E-08 M) [%] | % Inhibition of Control Specific Binding, 1st ([3]; 1.0E-09 M) [%] | % Inhibition of Control Specific Binding, 2nd ([3]; 1.0E-09 M) [%] | % Inhibition of Control Specific Binding, Mean ([3]; 1.0E-09 M) [%] | % Inhibition of Control Specific Binding, 1st ([3]; 3.0E-08 M) [%] | also measured
1 | NC(=O)[C@H](CCC(=O)O)NC(=O)[C@H](CO)NC(=O)[C@H](CO)NC(=O)[C@@H](N)Cc1ccccc1 [FSSE-NH2 (P5779), FSSE-NH2, reference compound] | reduced | no significant effect | dose-dependently reduced | – | – | – | – | – | – | – | – | – | – | – | – | – | – | – | – | – | half-life (in vitro; Ex-vivo stability t 1/2): < 2 min; Ex-vivo stability t 1/2 (male, C57BL/6J, mouse, blood): 2.0 ± 0.06 min
2 | NC(=O)N(CCC(=O)O)NC(=O)[C@H](CO)NC(=O)[C@H](CO)NC(=O)N(N)Cc1ccccc1 [Compound 51, azaF^1SSazaE^4-NH2] | much lower than that of FSSE-treated mice; also recorded: reduced | delayed the development of hyperglycemia | dose-dependently reduced | > 120 | – | – | – | – | – | – | – | – | – | – | – | – | – | – | – | – | diabetes-induced body weight loss [1]: hindered diabetes-induced body weight loss; level of blood glucose ([1]; day 7 and 14): significantly attenuated; serum levels of insulin ([1]; day 14, ELISA): successfully restored; liver function enzymes and plasma cytokines / pro-inflammatory markers [2]: improved liver function enzymes as well as plasma cytokines; liver function enzymes and plasma cytokines / pro-inflammatory markers ([2]; listed as azaF1SSazaE4): reduced APAP-induced pro-inflammatory markers and serum liver enzymes; protection / survival in APAP toxicity model [2]: protective; protection / survival in APAP toxicity model ([2]; listed as azaF1SSazaE4): improves survival; longer half-life than native FSSE peptide (mouse whole blood): > 60 fold
3 | icatibant | – | – | – | – | – | – | – | – | – | – | – | – | – | – | – | – | – | – | – | – | effect of pretreatment on azaF^8-BK (68)-induced lowering of blood pressure (rats): partial inhibition
4 | N=C(N)NCCC[C@H](NC(=O)[C@H](Cc1ccccc1)NC(=O)[C@@H]1CCCN1C(=O)[C@H](CO)NC(=O)[C@H](Cc1ccccc1)NC(=O)CNC(=O)[C@@H]1CCCN1C(=O)N1CCCN1C(=O)[C@@H](N)CCCNC(=N)N)C(=O)O [Compound 63, RazaP^2PGFSPFR] (H-R[azaPro]PGFSPFR-OH; N-terminus and C-terminus assumed) | – | – | – | 5.4 ± 1.1 | 61.1 | 7.9 | 4.5 | 98.9 | 98.6 | 98.8 | 94.6 | 95.1 | 94.9 | 58.5 | 56.4 | 57.4 | 0.2 | -3.4 | -1.6 | 86.3 | % Inhibition of Control Specific Binding, 2nd ([3]; 3.0E-08 M): 63.9%; % Inhibition of Control Specific Binding, Mean ([3]; 3.0E-08 M): 75.1%
5 | N=C(N)NCCC[C@H](NC(=O)N(Cc1ccccc1)NC(=O)[C@@H]1CCCN1C(=O)[C@H](CO)NC(=O)[C@H](Cc1ccccc1)NC(=O)CNC(=O)[C@@H]1CCCN1C(=O)N1CCCN1C(=O)[C@@H](N)CCCNC(=N)N)C(=O)O [Compound 70, RazaP^2PGFSPazaF^8R] (H-R[azaPro]PGFSP[azaPhe]R-OH; N-terminus and C-terminus assumed) | – | – | – | 29.2 ± 3.8 | 80.6 | 11 | 5.6 | 97.1 | 99.5 | 98.3 | 84.7 | 91.4 | 88.1 | 36.3 | 48.4 | 42.3 | -9.2 | 8.0 | -0.6 | 67.6 | % Inhibition of Control Specific Binding, 2nd ([3]; 3.0E-08 M): 73.7%; % Inhibition of Control Specific Binding, Mean ([3]; 3.0E-08 M): 70.6%
